The values that follow come from PMC8922758, “A new therapeutic approach for bone metastasis in colorectal cancer: intratumoral melittin” (The Journal of Venomous Animals and Toxins Including …, 2022).

Series [1] has as its system HT-29 CRC bone metastasis xenograft. As to the kind of experiment: Histopathological analysis of the metastasis. The format is in vivo, Balb/c-nu mice. The following applies: H&E. An excerpt:
After the anesthetic procedure by the parenteral anesthetic drug overdose, the animals were euthanized. The tumor was then resected entirely for anatomopathological analysis. The external surface of the sample was inspected. The opened and cleaned specimens were immersed in formalin overnight for fixation and embedded in paraffin. Metastasis was sliced to assess bone invasion. Tumor 3 µm sections were stained with hematoxylin-eosin and subjected to optical microscopy. Metastasis diagnosis and histological features were determined.

For series [2] the following is noted: cited from earlier work. The source says: The peptide inhibited approximately 50% of the growth of metastasis. […] In a recent paper melittin could be detected in patients up to 30 days after envenomation, clearly indicating bioaccumulation corroborating the effects of the single-dose treatment. Besides, melittin has the ability to improves sy ...
The nature of series [3]: Animal follow up: signs of toxicity, body weight, organ histopathology. The format is in vivo, Balb/c-nu mice. How it is done:
Signals of suffering and toxicity were carefully observed daily. The following general behaviors were observed: low activity, appetite loss, personality changes, immobility, social isolation, urine and feces consistency changes, lack of personal hygiene, and self-mutilation. Specific to mice, weight loss, dehydration, piloerection, and screams when touched were evaluated.
Moreover, immediately after euthanized, liver, kidneys, and heart were removed from the animals for histopathological analysis, which was conducted with the same method described above.

Series [4] in a line: Mass spectrometry characterisation (aggregation state). In kind it is physicochemical. Particulars: LC-MS, Q-Exactive Plus, C18, before application in the animals. An excerpt: The purity and identity were confirmed by mass spectrometry using a Q-Exactive Plus (Thermo Fisher Scientific, Waltham, Massachusetts, USA). The peptide was inserted into a C18 column (EASY-Spray™ LC Columns, Thermo Fisher Scientific, Waltham, Massachusetts, USA) coupled to a liquid chromatography binary system (EASY-nLC 1,200, Thermo Scientific, Waltham, Massachusetts, USA) and eluted with a gradient of 5%-80% of solvent A (water containing 0.1% formic acid) and B (90% acetonitrile containing 0.1% formic acid) with a constant flow of 100 nL/min. The eluted was automatically inserted in the mass spectrometer, operating in positive mode, in MS mode of a full scan of 300-1500 m/z.

For series [5], the system named is HT-29 human colorectal cancer cells. Kind of series: MTT cytotoxicity assay. In kind it is cell-based. The following applies: 48 h incubation. The method, then:
Human CRC (HT-29) was purchased from the European Collection of Authenticated Cell Cultures. It was thawed and propagated in […] flasks at 37 °C in a 5% CO2 humidified chamber (HeraCELL 150) in Dulbecco's modified Eagle's medium (DMEM; Sigma D-5648, São Paulo, Brazil) supplemented with 100 mM sodium pyruvate (Gibco, Thermo Fisher Scientific, Waltham, Massachusetts, USA), 10% fetal bovine serum (FBS) (Gibco, Fisher Scientific, Waltham, Massachusetts, USA), and 1% antibiotics (100 U/mL penicillin and 10 mg/mL streptomycin, Gibco). Cells were detached using 0.25% trypsin-EDTA (Gibco, Fisher Scientific, Waltham, Massachusetts, USA) at 37 °C for 3 min. DMEM plus 10% FBS was used to block the trypsin. The cell pellet was transferred to a new 75 cm^3 flask containing 10 mL DMEM. The culture medium was changed every 24 h. Cell viability was evaluated in the Neubauer chamber using Trypan Blue.
To check the viability, the culture fluid is removed and 5 × 10^5cells per well were treated with melittin (0.0625, 0.125, 0.25, 0.5, 1.0, 2.0, 35 and 70 µM). After 48 h of incubation, MTT (3-(4,5-dimethylthiazol-2-yl)-2,5-diphenyltetrazolium bromide) 0.5 mg/mL was added to each well and incubated at 37 °C for 4 h to determine the number of living cells. […] Then, the optical density was detected by a microplate reader at a wavelength of 540 nm (EPOCH, BioTech Instrument Inc., Winooski, VT, USA). […]
(Tetrazolium assays rely on reduction of a dye to a coloured formazan, in cell work by metabolically active cells.)

For series [6], the system named is HT-29 CRC bone metastasis xenograft. Kind of series: Bone metastasis in colorectal cancer mouse model, metastasis volume after intrametastatic injection. In kind it is in vivo, Balb/c-nu mice. The method, then: Six-week-old Balb/c-nu male mice (n = 9), weighing 23,76 ± 3,11 g, from Charles River Laboratories International Inc. (Wilmington, USA) were housed in individual ventilated racks. All animals were kept under controlled light conditions (12 h light/12 dark cycles), temperature (23 ± 1 °C), humidity (40%-60%), water, and feed ad libitum.
The procedures were performed in a laminar flow with rigorous asepsis and antisepsis techniques. On day 0, to perform the cell inoculation, mice were anesthetized with xylazine hydrochloride 2% plus ketamine, diluted 1:2 (0.3 mL/20 g), and administered via intramuscular injection. Briefly, cells were suspended in 40 μL of saline. A percutaneous 45° puncture was performed. Bone scarification was performed with the bevel of the hypodermic needle carefully to avoid transfixing the skullcap. Then, without needle exchange, cells (4 × 10^6 cells) were injected over the periosteal in the parietal region using a 1 mL syringe and 36G caliber hypodermic needle.
After xenograft, the animals were monitored daily. Metastasis was verified and measured every day. In case of signs, the animal is euthanized immediately. Metal calipers checked the volume. The growth curves were determined using the formula: Volume = L × S^2/2, where "S" is the smallest diameter measured and "L" is the largest diameter measured.
After the tumor reached 100 mm^3 (by the 19th day after xenograft), the animals were randomized into groups:
After anesthesia, 1,5 mg/kg single dose of melittin was injected in the metastasis with a sterile syringe, as deep as possible, without trespassing the tumor. Without removing the needle, 50 µL of solution was applied slowly for a homogenous distribution into the metastasis, equally distributed (10 µL) in the center and cardinal points. After the administration, the needle remained in the metastasis for 20 seconds before being slowly removed to avoid extravasation.

Take `CC[C@H](C)[C@H](NC(=O)CN)C(=O)NCC(=O)N[C@@H](C)C(=O)N[C@H](C(=O)N[C@@H](CC(C)C)C(=O)N[C@@H](CCCCN)C(=O)N[C@H](C(=O)N[C@@H](CC(C)C)C(=O)N[C@H](C(=O)N[C@H](C(=O)NCC(=O)N[C@@H](CC(C)C)C(=O)N1CCC[C@H]1C(=O)N[C@@H](C)C(=O)N[C@@H](CC(C)C)C(=O)N[C@H](C(=O)N[C@@H](CO)C(=O)N[C@@H](Cc1c[nH]c2ccccc12)C(=O)N[C@H](C(=O)N[C@@H](CCCCN)C(=O)N[C@@H](CCCNC(=N)N)C(=O)N[C@@H](CCCCN)C(=O)N[C@@H](CCCNC(=N)N)C(=O)N[C@@H](CCC(N)=O)C(=O)N[C@@H](CCC(N)=O)C(N)=O)[C@@H](C)CC)[C@@H](C)CC)[C@@H](C)O)[C@@H](C)O)C(C)C)C(C)C` [melittin]: the “microscopy of treated metastasis, mitosis rate” value in series [1] (melittin-treated animals n = 6) is “low mitosis rate”. The “microscopy of treated metastasis, tumor cells” value in series [1] (last experimental day (day 27), n = 6) is “necrosis and absence of tumor cells”. For the same molecule, in series [2], the “time melittin is detectable in patients after envenomation” value is on record as “up to 30 days”. Besides, the “death or severe toxicity signs” value in series [3] (after intrametastatic treatment, 1,5 mg/kg single dose) is recorded as “no death or severe toxicity signs”. Further, in series [3] (daily observation after 1,5 mg/kg single intrametastatic dose), the signs of envenomation result was “did not show signs of envenomation”. Besides, the “local reaction at injection site” value in series [3] (day 20, the day after intrametastatic injection of 1,5 mg/kg) is reported as “local inflammation”. Further, in series [3] (day 27, seven days after single dose, H&E), the “histopathological analysis of liver, kidney and heart” value was “no signals of toxicity”. In addition, in series [3] (three days after administration, p < 0.01, n = 6 vs n = 3), the “body weight versus untreated animals” value is recorded as “greater weight loss than those untreated”. The “aggregation state by mass spectrometry” value in series [4] is “monomeric structure without aggregation”. For the same molecule, the “maximum inhibition of HT-29 proliferation” value in series [5] (2 µM, mean of triplicates) worked out at 80%. The “decrease of the initial HT-29 cell number” value in series [5] (0.0625-70 µM, triplicates) was “about 20%”. The “inhibition of growing metastasis” value in series [6] (1,5 mg/kg single intrametastatic dose on day 19, 2 days after the treatment, n = 6 vs untreated n = 3, p < 0.001) was “approximately 50%”. This molecule also returned a metastasis reduction in series [6] (after a single intrametastatic dose, 1,5 mg/kg) of 53%. Moreover, in series [6] (seven days after single-dose injection), the metastasis regrowth entry is “metastases started growing again”.
